These are literature values, as cited in patent publication US12208399B2, “Electrochemical separation and recovery of metals” (YALE UNIVERSITY, priority 2017, dated 2025).

Structures are written as SMILES. In brackets after ≈: the same amount, converted by molar mass.

Regarding `O=C1C(Cl)=CC(=Nc2ccc(O)cc2)C=C1Cl` [DCIP, 2,6-dichloroindophenol], the Solubility in water is 10 mg/mL (≈ 37.3 mM).

For `Cc1cc2nc3c(=O)[nH]c(=O)nc-3n(C[C@@H](O)[C@@H](O)[C@@H](O)COP(=O)(O)O)c2cc1C` [RMP, riboflavin 5′-monophosphate], the Solubility in water is 100 mg/mL (≈ 219 mM).
